Assay results as given in PubChem BioAssay (NCI).
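48-hour exposure; five concentrations; linearly interpolated endpoints. TGI: total growth inhibition.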

Experiments:
Assay in all cases: NCI anticancer screen, dose series, 48 h
KM12 colon = tested on: KM12 colon
ACHN renal = tested on: ACHN renal
NCI-H226 lung = tested on: NCI-H226 lung
UACC-62 melanoma = tested on: UACC-62 melanoma
M14 melanoma = tested on: M14 melanoma
SN12C renal = tested on: SN12C renal
OVCAR-8 ovarian = tested on: OVCAR-8 ovarian
MOLT-4 leukemia = tested on: MOLT-4 leukemia
A549 NSCLC = tested on: A549 NSCLC
DMS 273 small cell lung = tested on: DMS 273 small cell lung
RXF 393 renal = tested on: RXF 393 renal
786-0 renal = tested on: 786-0 renal
UO-31 renal = tested on: UO-31 renal
LOX IMVI melanoma = tested on: LOX IMVI melanoma
DLD-1 colon = tested on: DLD-1 colon
SF-539 CNS = tested on: SF-539 CNS
KM20L2 colon = tested on: KM20L2 colon
SK-MEL-2 melanoma = tested on: SK-MEL-2 melanoma
U251 CNS = tested on: U251 CNS
RPMI-8226 leukemia = tested on: RPMI-8226 leukemia
M19-MEL melanoma = tested on: M19-MEL melanoma
EKVX NSCLC = tested on: EKVX NSCLC
DMS 114 small cell lung = tested on: DMS 114 small cell lung
SNB-19 CNS = tested on: SNB-19 CNS
SW-620 colon = tested on: SW-620 colon
NCI-H522 lung = tested on: NCI-H522 lung
SK-MEL-5 melanoma = tested on: SK-MEL-5 melanoma
OVCAR-3 ovarian = tested on: OVCAR-3 ovarian
SNB-75 CNS = tested on: SNB-75 CNS
HCT-15 colon = tested on: HCT-15 colon
CCRF-CEM leukemia = tested on: CCRF-CEM leukemia
SF-295 CNS = tested on: SF-295 CNS
HT29 colon = tested on: HT29 colon
UACC-257 melanoma = tested on: UACC-257 melanoma
SK-OV-3 ovarian = tested on: SK-OV-3 ovarian
HL-60(TB) leukemia = tested on: HL-60(TB) leukemia
HOP-62 NSCLC = tested on: HOP-62 NSCLC
NCI-H23 lung = tested on: NCI-H23 lung
MALME-3M melanoma = tested on: MALME-3M melanoma
SK-MEL-28 melanoma = tested on: SK-MEL-28 melanoma
HCT-116 colon = tested on: HCT-116 colon
HOP-18 NSCLC = tested on: HOP-18 NSCLC
TK-10 renal = tested on: TK-10 renal
COLO 205 colon = tested on: COLO 205 colon
K-562 leukemia = tested on: K-562 leukemia
IGROV1 ovarian = tested on: IGROV1 ovarian
NCI-H460 lung = tested on: NCI-H460 lung

Measured: TGI

CC1Cc2c(N)nc(N3CCOCC3)nc2NC1=O (configuration not stated)
> 100 µM: all assays above
